According to patent US8389563B2, “C-substituted diindolylmethane compositions and methods for the treatment of multiple cancers” (The Texas A&M University System, priority 2000, dated 2013):
pIC50: −log10 of the molar value. Entries after “also recorded” stand apart in the source; their conditions may differ. Like-named read-outs stand apart in the source and are kept apart here. Marks after values point to notes of the source that are not given here. Blank lines part the entries; values can stand above or below the compound they belong to.

Experiments:
[1] = molecular target: T1, Ah receptor (Rattus norvegicus, UniProt P41738); experiment: Ah receptor competitive binding
T1 sequence (P41738 10-853): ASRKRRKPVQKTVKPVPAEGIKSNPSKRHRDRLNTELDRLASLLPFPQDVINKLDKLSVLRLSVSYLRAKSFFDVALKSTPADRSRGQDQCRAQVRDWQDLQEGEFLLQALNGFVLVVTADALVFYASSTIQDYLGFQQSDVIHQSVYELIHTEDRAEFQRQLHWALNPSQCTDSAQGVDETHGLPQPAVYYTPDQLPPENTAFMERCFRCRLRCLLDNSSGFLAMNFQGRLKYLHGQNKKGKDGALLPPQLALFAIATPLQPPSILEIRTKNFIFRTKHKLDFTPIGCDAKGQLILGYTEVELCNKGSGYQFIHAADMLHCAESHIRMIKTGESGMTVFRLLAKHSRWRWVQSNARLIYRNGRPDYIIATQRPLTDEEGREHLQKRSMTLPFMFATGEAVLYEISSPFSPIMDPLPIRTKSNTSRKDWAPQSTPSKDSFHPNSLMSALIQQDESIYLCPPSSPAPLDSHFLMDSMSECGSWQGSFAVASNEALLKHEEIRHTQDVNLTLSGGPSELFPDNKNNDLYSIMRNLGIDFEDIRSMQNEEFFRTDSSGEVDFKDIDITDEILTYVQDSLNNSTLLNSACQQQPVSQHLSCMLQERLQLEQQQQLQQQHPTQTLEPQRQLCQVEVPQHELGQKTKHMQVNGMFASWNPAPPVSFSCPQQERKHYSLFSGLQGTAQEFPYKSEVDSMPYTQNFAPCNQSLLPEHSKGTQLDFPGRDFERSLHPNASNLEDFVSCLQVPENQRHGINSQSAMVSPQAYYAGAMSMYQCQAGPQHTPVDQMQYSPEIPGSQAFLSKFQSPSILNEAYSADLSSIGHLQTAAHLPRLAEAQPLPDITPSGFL

[2] = test system: J82 human bladder cancer cell line; experiment: Cell proliferation of J82 bladder cancer cells; format: cell-based; settings: 0.1-10 μM, cell growth over 4-10 days
Procedure: (§1) Initial studies used TCCSUP and J82 human bladder cancer cell lines that were maintained in RPMI culture media supplemented with 10% fetal bovine serum. Cell proliferation studies were carried out in multi-well plates, and compounds (in DMSO, 0.1% vol./vol.) were added and cell growth was determined over a period of 4 10 days. The growth inhibitory properties of DIM and related analogs were determined using the following prototypical compounds: DIM, 5,5′-dimethylDIM (5-Me-DIM), 2,2′-dimethylDIM (2-Me-DIM), and 5,5′-dichloroDIM (5-Cl-DIM) at concentrations from 0.1 10 μM.
as §1, with “Initial studies on the possible protective role for DIM compounds in bladder cancer used TCCSUP” for “Initial studies used TCCSUP”

[3] = test system: TCCSUP human bladder cancer cell line; experiment: Cell proliferation of TCCSUP bladder cancer cells; format: cell-based; settings: for Proliferation of TCCSUP human bladder cancer cells: 0.1-10 μM, cell growth over 4-10 days; for Lowest concentration at which TCCSUP cells were inhibited: lowest concentration tested
Procedure: as §1
as §1, with “Initial studies on the possible protective role for DIM compounds in bladder cancer used TCCSUP” for “Initial studies used TCCSUP”

[4] = test system: HT-29 human colon cancer cells; experiment: Cell proliferation and apoptosis of HT-29 colon cancer cells; format: cell-based
Procedure: (§2) Studies with HT-29 human colon cancer cells also indicate that DIM and related analogs protect against colon cancer. HT-29 cells were grown in DMEM and serum and treated with 25 μM DIM and 4,4′-dichloroDIM. After 72 hr, there was a 73 and 92% decrease in cell proliferation, respectively, and these antiproliferative effects could be observed with cell concentrations as low as 10 μM.
as §2, with “Preliminary studies” for “Studies”, “hours,” for “hr,”, “with” for “with cell”

[5] = test system: mitogen-activated protein kinase (MAPKK); experiment: MAPKK-induced pSRE reporter activity in MCF-7 cells; format: cell-based; settings: 1 or 5 μM, MCF-7 cells transfected with pMAPKK and pSRE
Excerpt: Therefore, we have been investigating the inhibitory effects of DIMs on kinase activities and our initial studies have examined inhibition of mitogen-activated protein kinase (MAPKK) which regulates expression of multiple genes involved in cell proliferation. MCF-7 cells are transfected with a constitutively active MAPKK expression plasmid (pMAPKK), and induction of activity is monitored through activation of the construct pSRE which contains a MAPKK-inducible serum response element (SRE) from the cfos protooncogene (Duan et al., “Estrogen receptor-mediated activation of the serum response element in MCF-7 cells through MAPK-dependent phosphorylation of Elk-1” J. Biol. Chem. 276:11590 11598, 2001).

[6] = test system: DMBA-induced mammary tumor; experiment: DMBA-induced rat mammary tumor model; format: in vivo, female Sprague-Dawley rats; settings: 1.0 mg/kg every 2 days; for Mammary tumor growth in DMBA-induced rats: tumor volumes over 21 days
[7] = test system: MCF-7 human breast cancer cells; experiment: Proliferation of MCF-7 breast cancer cells, alone or with 1 nM E2; format: cell-based; settings: for E2-induced MCF-7 cell proliferation: co-treated with 1 nM E2; for Growth of MCF-7 cells, compound alone: up to 10 μM
[8] = Body/organ weights, EROD and histopathology in the DMBA-induced rat study; format: in vivo, female Sprague-Dawley rats; settings: 1.0 mg/kg every 2 days
[9] = test system: T47D human breast cancer cells; experiment: Estrogenic and antiestrogenic activity in T47D cells (proliferation, alone or with 1 nM E2); format: cell-based; settings: in combination with 1 nM E2
Excerpt: In a separate study, it was also shown that the same compounds and other C-substituted DIMs were also antiestrogenic in T47D cells, and these include the C-p-phenol and C-p-anisole compounds in which R1═CH3 (methyl) (i.e., NMe-CPh-OHDIM and NMe-CPh-MeODIM, respectively) (FIG. 3).

pIC50 [1]: 9.26
SMILES: Cn1cc(C(c2ccc(Cl)cc2)c2cn(C)c3ccccc23)c2ccccc21

SMILES: Cc1[nH]c2ccccc2c1Cc1c(C)[nH]c2ccccc12 [2,2′-dimethylDIM, 2,2′-dimethyl-diindolylmethane]
Proliferation of J82 human bladder cancer cells [2]: significantly inhibited
Proliferation of TCCSUP human bladder cancer cells [3]: significantly inhibited
Lowest concentration at which TCCSUP cells were inhibited [3]: 0.1 µM

SMILES: Clc1cccc2[nH]cc(Cc3c[nH]c4cccc(Cl)c34)c12 [4,4′-dichloroDIM]
Lowest concentration at which antiproliferative effects could be observed in HT-29 cells [4]: 10 µM
Programmed cell death accompanying growth inhibition in HT-29 cells [4]: programmed cell death, or apoptosis; also recorded: programmed cell death or apoptosis
Decrease in HT-29 cell proliferation ([4]; 25 μM, after 72 hr): 92%

SMILES: Clc1ccc2[nH]cc(Cc3c[nH]c4ccc(Cl)cc34)c2c1 [5,5′-dichloroDIM, 5,5′-dichloro-diindolylmethane]
Proliferation of J82 human bladder cancer cells [2]: significantly inhibited
Proliferation of TCCSUP human bladder cancer cells [3]: significantly inhibited
Lowest concentration at which TCCSUP cells were inhibited [3]: 0.1 µM

SMILES: Cc1ccc2[nH]cc(Cc3c[nH]c4ccc(C)cc34)c2c1 [5,5′-dimethylDIM, 5,5′-dimethyl-diindolylmethane]
Proliferation of J82 human bladder cancer cells [2]: significantly inhibited
Proliferation of TCCSUP human bladder cancer cells [3]: significantly inhibited
Lowest concentration at which TCCSUP cells were inhibited [3]: 0.1 µM
MAPKK-induced (pSRE) activity [5]: inhibited MAPKK-induced activity

SMILES: Cc1ccc2c(Cc3c[nH]c4cc(C)ccc34)c[nH]c2c1 [6,6′-dimethlyDIM]
MAPKK-induced (pSRE) activity [5]: inhibited MAPKK-induced activity

EROD [8]: 309 ± 102 pmol/mg/min
pIC50 [1]: 7.01
SMILES: c1ccc(C(c2c[nH]c3ccccc23)c2c[nH]c3ccccc23)cc1 [C-PhDIM]
Tumor volume [6]: 1025 +/− 245* mm3
Tumor weight [6]: 1.40 +/− 0.4* g
Mammary tumor growth in DMBA-induced rats [6]: potent inhibition of mammary tumor growth
Mammary tumor growth in DMBA-induced rats ([6]; listed as C-phenylDIM): potent inhibition of mammary tumor growth
Mammary tumor growth in DMBA-induced rats ([6]; listed as C—PhDIM): Illustrates inhibition of DMBA-induced mammary tumor growth in female Sprague-
E2-induced MCF-7 cell proliferation ([7]; listed as C-phenylDIM): hormone-induced proliferative response was inhibited
E2-induced MCF-7 cell proliferation ([7]; listed as C—C6H5): significant inhibition of E2-induced cell proliferation
Growth of MCF-7 cells, compound alone ([7]; listed as C-phenylDIM): did not induce breast cancer cell proliferation
Growth of MCF-7 cells, compound alone ([7]; listed as C—C6H5): do not affect growth
Changes in body/organ weights or tissue histopathology [8]: not accompanied by changes in body/organ weights or altered tissue histopathology
Heart [8]: 0.38 +/− 0.03 % body weight
Kidney [8]: 0.33 +/− 0.01 % body weight
Liver [8]: 3.2 +/− 0.1 % body weight
Spleen [8]: 0.33 +/− 0.05 % body weight
Uterus [8]: 0.19 +/− 0.02 % body weight
Changes in body/organ weights or tissue histopathology ([8]; listed as C-phenylDIM): not accompanied by changes in body/organ weights on altered tissue histopathology
Antiestrogenic activity in T47D cells [9]: antiestrogenic

pIC50 [1]: 7.96
SMILES: CC(c1c[nH]c2ccccc12)c1c[nH]c2ccccc12 [C-methylDIM]
E2-induced MCF-7 cell proliferation [7]: hormone-induced proliferative response was inhibited
E2-induced MCF-7 cell proliferation ([7]; listed as C—CH3): significant inhibition of E2-induced cell proliferation
Growth of MCF-7 cells, compound alone [7]: did not induce breast cancer cell proliferation
Growth of MCF-7 cells, compound alone ([7]; listed as C—CH3): do not affect growth
Antiestrogenic activity in T47D cells [9]: antiestrogenic

SMILES: FC(F)(F)c1ccc(C(c2c[nH]c3ccccc23)c2c[nH]c3ccccc23)cc1 [C—Ph—CF3DIM]
Mammary tumor growth in DMBA-induced rats [6]: Illustrates inhibition of DMBA-induced mammary tumor growth in female and C—Ph—CF3DIM

SMILES: Cn1cc(C(c2ccc(-c3ccccc3)cc2)c2cn(C)c3ccccc23)c2ccccc21 [NMe-C-BiphDIM]
Mammary tumor growth in DMBA-induced rats [6]: Illustrates inhibition of DMBA-induced mammary tumor growth in female Sprague-
pIC50 ([1]; read-out: IC50 competitive binding values, Ah receptor): 8.74

SMILES: Cn1cc(C(c2ccc(C(F)(F)F)cc2)c2cn(C)c3ccccc23)c2ccccc21 [NMe-C-Ph-CF3DIM]
Mammary tumor growth in DMBA-induced rats [6]: Illustrates inhibition of DMBA-induced mammary tumor growth in female Sprague-

SMILES: COc1ccc(C(c2cn(C)c3ccccc23)c2cn(C)c3ccccc23)cc1 [NMe-C-Ph-MeODIM]
Mammary tumor growth in DMBA-induced rats [6]: Illustrates inhibition of DMBA-induced mammary tumor growth in female Sprague-
Antiestrogenic activity in T47D cells [9]: antiestrogenic

SMILES: Cn1cc(C(c2ccccc2)c2cn(C)c3ccccc23)c2ccccc21 [NMe-C-PhDIM]
Mammary tumor growth in DMBA-induced rats [6]: Illustrates inhibition of DMBA-induced mammary tumor growth in female Sprague-

SMILES: Cc1ccc(C(c2cn(C)c3ccccc23)c2cn(C)c3ccccc23)cc1 [NMe-C-PhMeDIM]
Mammary tumor growth in DMBA-induced rats [6]: Illustrates inhibition of DMBA-induced mammary tumor growth in female Sprague-

SMILES: Cn1cc(C(c2ccc(O)cc2)c2cn(C)c3ccccc23)c2ccccc21 [NMe-C-PhOHDIM]
Mammary tumor growth in DMBA-induced rats [6]: Illustrates inhibition of DMBA-induced mammary tumor growth in female Sprague-
Antiestrogenic activity in T47D cells [9]: antiestrogenic
